Experiments:
Experiment in all cases: Test B pre-/postemergence plant response
Format in all cases: in vivo
[1] = test system: lambsquarters (Chenopodium album)
Outline: (§1)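 Seeds were sown and sprayed preemergence, while plants at 2 to 18 cm (1- to 4-leaf stage) got postemergence sprays. Compounds were formulated in a non-phytotoxic solvent mixture with surfactant. After 13 to 15 days in a greenhouse, injury was rated visually against untreated controls, 0 (no effect) to 100 (complete control).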

[2] = test system: johnsongrass (Sorghum halepense)
Outline: as §1

[3] = test system: Italian ryegrass (Lolium multiflorum)
Outline: as §1

corn (Zea mays) = test system: corn (Zea mays)
Outline: as §1

[4] = test system: blackgrass (Alopecurus myosuroides)
Outline: as §1

[5] = test system: common ragweed (Ambrosia elation)
Outline: as §1

[6] = test system: bermudagrass (Cynodon dactylon)
Outline: as §1

wild oat (Avena fatua) = test system: wild oat (Avena fatua)
Outline: as §1

kochia (Kochia scoparia) = test system: kochia (Kochia scoparia)
Outline: as §1

[7] = test system: surinam grass (Brachiaria decumbens)
Outline: as §1

[8] = test system: giant foxtail (Setaria faberii)
Outline: as §1

[9] = test system: morningglory (Ipomoea coccinea)
Outline: as §1

[10] = test system: eastern black (E.B.) nightshade (Solanum ptycanthum); conditions: Preemergence
Outline: as §1

[11] = test system: yellow nutsedge (Cyperus esculentus)
Outline: as §1

[12] = 8 g ai/ha, postemergence, 0-100 scale
[13] = 16 g ai/ha, postemergence, 0-100 scale
[14] = Postemergence, 31 g ai/ha, scale 0 to 100
[15] = Postemergence, 62 g ai/ha, scale 0 to 100, 0 no effect, 100 complete control
[16] = Preemergence, 8 g ai/ha, scale 0 to 100 (0 no effect, 100 complete control)
[17] = Preemergence, 31 g ai/ha, scale 0 to 100 (0 no effect, 100 complete control)
[18] = Preemergence, 62 g ai/ha, 0 to 100 scale, 0 no effect, 100 complete control
[19] = Preemergence, 16 g ai/ha, scale 0 to 100

**Q.** `CCc1c(C)c(-c2ccc(Br)cc2)nn1-c1c(O)cnn(C)c1=O` [Compound 83] was tested. Which “Lambsquarters plant response rating” value [1, 12] did it give?
**A.** 0

**Q.** What about the “Lambsquarters plant response rating” value [1, 13] of the same molecule?
**A.** 0

**Q.** And the “Plant response rating, Lambsquarters” value [1, 14]?
**A.** 0

**Q.** What about the “Plant response rating, Lambsquarters” value [1, 15] of the same molecule?
**A.** 0

**Q.** What about the “Lambsquarters plant response rating” value [1, 16] of the same molecule?
**A.** 100

**Q.** What about the “Plant response rating, Lambsquarters” value [1, 17] of the same molecule?
**A.** 100

**Q.** And the “Plant response rating, Lambsquarters” value [1, 18]?
**A.** 100

**Q.** What about the “Lambsquarters plant response rating” value [1, 19] of the same molecule?
**A.** 100

**Q.** What about the “Johnsongrass plant response rating” value [2, 12] of the same molecule?
**A.** 65

**Q.** What about the “Johnsongrass plant response rating” value [2, 13] of the same molecule?
**A.** 70

**Q.** What about the “Plant response rating, Johnsongrass” value [2, 14] of the same molecule?
**A.** 98

**Q.** And the “Plant response rating, Johnsongrass” value [2, 15]?
**A.** 100

**Q.** And the “Johnsongrass plant response rating” value [2, 16]?
**A.** 55

**Q.** What about the “Plant response rating, Johnsongrass” value [2, 17] of the same molecule?
**A.** 95

**Q.** And the “Plant response rating, Johnsongrass” value [2, 18]?
**A.** 98

**Q.** What about the “Johnsongrass plant response rating” value [2, 19] of the same molecule?
**A.** 85

**Q.** And the “Ryegrass, Italian plant response rating” value [3, 12]?
**A.** 85

**Q.** And the “Ryegrass, Italian plant response rating” value [3, 13]?
**A.** 98

**Q.** What about the “Plant response rating, Ryegrass, Italian” value [3, 14] of the same molecule?
**A.** 100

**Q.** What about the “Plant response rating, Ryegrass, Italian” value [3, 15] of the same molecule?
**A.** 100

**Q.** And the “Ryegrass, Italian plant response rating” value [3, 16]?
**A.** 30

**Q.** What about the “Plant response rating, Ryegrass, Italian” value [3, 17] of the same molecule?
**A.** 100

**Q.** What about the “Plant response rating, Ryegrass, Italian” value [3, 18] of the same molecule?
**A.** 100

**Q.** What about the “Ryegrass, Italian plant response rating” value [3, 19] of the same molecule?
**A.** 85

**Q.** And the “Corn plant response rating” value (corn (Zea mays); [12])?
**A.** 65

**Q.** And the “Corn plant response rating” value (corn (Zea mays); [13])?
**A.** 95

**Q.** What about the “Plant response rating, Corn” value (corn (Zea mays); [14]) of the same molecule?
**A.** 98

**Q.** What about the “Plant response rating, Corn” value (corn (Zea mays); [15]) of the same molecule?
**A.** 100

**Q.** And the “Corn plant response rating” value (corn (Zea mays); [16])?
**A.** 0

**Q.** And the “Plant response rating, Corn” value (corn (Zea mays); [17])?
**A.** 95

**Q.** And the “Plant response rating, Corn” value (corn (Zea mays); [18])?
**A.** 95

**Q.** What about the “Corn plant response rating” value (corn (Zea mays); [19]) of the same molecule?
**A.** 45

**Q.** What about the “Blackgrass plant response rating” value [4, 12] of the same molecule?
**A.** 70

**Q.** And the “Blackgrass plant response rating” value [4, 13]?
**A.** 95

**Q.** And the “Plant response rating, Blackgrass” value [4, 14]?
**A.** 95

**Q.** And the “Plant response rating, Blackgrass” value [4, 15]?
**A.** 100

**Q.** And the “Blackgrass plant response rating” value [4, 16]?
**A.** 0

**Q.** What about the “Plant response rating, Blackgrass” value [4, 17] of the same molecule?
**A.** 80

**Q.** And the “Plant response rating, Blackgrass” value [4, 18]?
**A.** 98

**Q.** And the “Blackgrass plant response rating” value [4, 19]?
**A.** 30

**Q.** What about the “Ragweed plant response rating” value [5, 12] of the same molecule?
**A.** 0

**Q.** What about the “Ragweed plant response rating” value [5, 13] of the same molecule?
**A.** 0

**Q.** What about the “Plant response rating, Ragweed” value [5, 14] of the same molecule?
**A.** 0

**Q.** What about the “Plant response rating, Ragweed” value [5, 15] of the same molecule?
**A.** 0

**Q.** And the “Ragweed plant response rating” value [5, 16]?
**A.** 0

**Q.** And the “Plant response rating, Ragweed” value [5, 17]?
**A.** 0

**Q.** What about the “Plant response rating, Ragweed” value [5, 18] of the same molecule?
**A.** 0

**Q.** What about the “Ragweed plant response rating” value [5, 19] of the same molecule?
**A.** 0

**Q.** And the “Bermudagrass plant response rating” value [6, 12]?
**A.** 40

**Q.** What about the “Bermudagrass plant response rating” value [6, 13] of the same molecule?
**A.** 65

**Q.** And the “Plant response rating, Bermudagrass” value [6, 14]?
**A.** 85

**Q.** What about the “Plant response rating, Bermudagrass” value [6, 15] of the same molecule?
**A.** 90

**Q.** What about the “Bermudagrass plant response rating” value [6, 16] of the same molecule?
**A.** 55

**Q.** And the “Bermudagrass plant response rating” value ([6]; Preemergence, 16 g ai/ha, scale 0 to 100 (0 no effect, 100 complete control))?
**A.** 65

**Q.** And the “Plant response rating, Bermudagrass” value [6, 17]?
**A.** 100

**Q.** What about the “Plant response rating, Bermudagrass” value [6, 18] of the same molecule?
**A.** 100

**Q.** What about the “Oat, Wild plant response rating” value (wild oat (Avena fatua); [12]) of the same molecule?
**A.** 98

**Q.** And the “Oat, Wild plant response rating” value (wild oat (Avena fatua); [13])?
**A.** 100

**Q.** And the “Plant response rating, Oat, Wild” value (wild oat (Avena fatua); [14])?
**A.** 100

**Q.** And the “Plant response rating, Oat, Wild” value (wild oat (Avena fatua); [15])?
**A.** 100

**Q.** And the “Oat, Wild plant response rating” value (wild oat (Avena fatua); [16])?
**A.** 0

**Q.** And the “Plant response rating, Oat, Wild” value (wild oat (Avena fatua); [17])?
**A.** 80

**Q.** And the “Plant response rating, Oat, Wild” value (wild oat (Avena fatua); [18])?
**A.** 85

**Q.** What about the “Oat, Wild plant response rating” value (wild oat (Avena fatua); [19]) of the same molecule?
**A.** 30

**Q.** What about the “Kochia plant response rating” value (kochia (Kochia scoparia); [12]) of the same molecule?
**A.** 0

**Q.** What about the “Kochia plant response rating” value (kochia (Kochia scoparia); [13]) of the same molecule?
**A.** 0

**Q.** What about the “Plant response rating, Kochia” value (kochia (Kochia scoparia); [14]) of the same molecule?
**A.** 0

**Q.** What about the “Plant response rating, Kochia” value (kochia (Kochia scoparia); [15]) of the same molecule?
**A.** 0

**Q.** And the “Kochia plant response rating” value (kochia (Kochia scoparia); [16])?
**A.** 50

**Q.** What about the “Plant response rating, Kochia” value (kochia (Kochia scoparia); [17]) of the same molecule?
**A.** 100

**Q.** And the “Plant response rating, Kochia” value (kochia (Kochia scoparia); [18])?
**A.** 100

**Q.** What about the “Kochia plant response rating” value (kochia (Kochia scoparia); [19]) of the same molecule?
**A.** 100

**Q.** And the “Surinam Grass plant response rating” value [7, 12]?
**A.** 85

**Q.** What about the “Surinam Grass plant response rating” value [7, 13] of the same molecule?
**A.** 100

**Q.** What about the “Plant response rating, Surinam Grass” value [7, 14] of the same molecule?
**A.** 100

**Q.** What about the “Plant response rating, Surinam Grass” value [7, 15] of the same molecule?
**A.** 100

**Q.** And the “Surinam Grass plant response rating” value [7, 16]?
**A.** 55

**Q.** What about the “Plant response rating, Surinam Grass” value [7, 17] of the same molecule?
**A.** 98

**Q.** And the “Plant response rating, Surinam Grass” value [7, 18]?
**A.** 100

**Q.** And the “Surinam Grass plant response rating” value [7, 19]?
**A.** 90

**Q.** What about the “Foxtail, Giant plant response rating” value [8, 12] of the same molecule?
**A.** 80

**Q.** What about the “Foxtail, Giant plant response rating” value [8, 13] of the same molecule?
**A.** 90

**Q.** And the “Plant response rating, Foxtail, Giant” value [8, 14]?
**A.** 100

**Q.** And the “Plant response rating, Foxtail, Giant” value [8, 15]?
**A.** 100

**Q.** And the “Foxtail, Giant plant response rating” value [8, 16]?
**A.** 80

**Q.** And the “Plant response rating, Foxtail, Giant” value [8, 17]?
**A.** 100

**Q.** And the “Plant response rating, Foxtail, Giant” value [8, 18]?
**A.** 100

**Q.** What about the “Foxtail, Giant plant response rating” value [8, 19] of the same molecule?
**A.** 100

**Q.** And the “Morningglory plant response rating” value [9, 12]?
**A.** 0

**Q.** What about the “Morningglory plant response rating” value [9, 13] of the same molecule?
**A.** 0

**Q.** What about the “Plant response rating, Morningglory” value [9, 14] of the same molecule?
**A.** 0

**Q.** What about the “Plant response rating, Morningglory” value [9, 15] of the same molecule?
**A.** 0

**Q.** What about the “Morningglory plant response rating” value [9, 16] of the same molecule?
**A.** 0

**Q.** And the “Plant response rating, Morningglory” value [9, 17]?
**A.** 0

**Q.** What about the “Plant response rating, Morningglory” value [9, 18] of the same molecule?
**A.** 0

**Q.** And the “Morningglory plant response rating” value [9, 19]?
**A.** 0

**Q.** What about the “Nightshade, E. B. plant response rating” value ([10]; 8 g ai/ha, scale 0 to 100 (0 no effect, 100 complete control)) of the same molecule?
**A.** 0

**Q.** And the “Plant response rating, Nightshade, E. B.” value ([10]; 31 g ai/ha, scale 0 to 100 (0 no effect, 100 complete control))?
**A.** 0

**Q.** What about the “Plant response rating, Nightshade, E. B.” value ([10]; 62 g ai/ha, 0 to 100 scale, 0 no effect, 100 complete control) of the same molecule?
**A.** 0

**Q.** And the “Nightshade, E. B. plant response rating” value ([10]; 16 g ai/ha, scale 0 to 100)?
**A.** 0

**Q.** What about the “Nutsedge, Yellow plant response rating” value [11, 12] of the same molecule?
**A.** 0

**Q.** And the “Nutsedge, Yellow plant response rating” value [11, 13]?
**A.** 0

**Q.** And the “Plant response rating, Nutsedge, Yellow” value [11, 14]?
**A.** 0

**Q.** And the “Plant response rating, Nutsedge, Yellow” value [11, 15]?
**A.** 0

**Q.** And the “Nutsedge, Yellow plant response rating” value [11, 16]?
**A.** 0

**Q.** What about the “Plant response rating, Nutsedge, Yellow” value [11, 17] of the same molecule?
**A.** 0

**Q.** What about the “Plant response rating, Nutsedge, Yellow” value [11, 18] of the same molecule?
**A.** 0

**Q.** And the “Nutsedge, Yellow plant response rating” value [11, 19]?
**A.** 0
